Measured values reported in patent US6358885B1, “Substituted phenylheterocyclic herbicides” (Mississippi State University, priority 1992, dated 2002).

How the values were obtained:
Assay in all cases: Test B preemergence/postemergence greenhouse plant response rating 0 to 10
[1] = test system: corn; type: in vivo, Zea mays; conditions: for Plant response rating, Corn: 0 to 10 scale
In short: (§1)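 Both application timings were run together: seeds got compound preemergence, and established seedlings (two to eighteen cm) got it postemergence. Non-phytotoxic solvent carried the chemical. Ratings are visual, versus controls, at twelve to sixteen days.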

[2] = test system: chickweed; type: in vivo, Stellaria media; conditions: for Plant response rating, Chickweed: 0 to 10 scale
In short: as §1

[3] = test system: giant foxtail; type: in vivo, Setaria faberii; conditions: for Plant response rating, Giant foxtail: 0 to 10 scale
In short: as §1

[4] = test system: lambsquarters; type: in vivo, Chenopodium album; conditions: for Plant response rating, Lambsquarter: 0 to 10 scale
In short: as §1

[5] = test system: wild oat; type: in vivo, Avena fatua; conditions: for Plant response rating, Wild oat: 0 to 10 scale
In short: as §1

[6] = test system: sorghum; type: in vivo, Sorghum bicolor; conditions: for Plant response rating, Sorghum: 0 to 10 scale
In short: as §1

[7] = test system: barnyardgrass; type: in vivo, Echinochloa crus-galli; conditions: for Plant response rating, Barnyardgrass: 0 to 10 scale
In short: as §1

[8] = test system: barley; type: in vivo, Hordeum vulgare; conditions: for Plant response rating, Barley: 0 to 10 scale
In short: as §1

[9] = test system: cocklebur; type: in vivo, Xanthium pensylvanicum; conditions: for Plant response rating, Cocklebur: 0 to 10 scale
In short: as §1

[10] = test system: purple nutsedge; type: in vivo, Cyperus rotundus; conditions: for Plant response rating, Nutsedge: 0 to 10 scale
In short: as §1

[11] = test system: wheat; type: in vivo, Triticum aestivum; conditions: for Plant response rating, Wheat: 0 to 10 scale
In short: as §1

[12] = test system: soybean; type: in vivo, Glycine max; conditions: for Plant response rating, Soybean: 0 to 10 scale
In short: as §1

[13] = test system: crabgrass; type: in vivo, Digitaria spp.; conditions: for Plant response rating, Crabgrass: 0 to 10 scale
In short: as §1

[14] = test system: cheatgrass; type: in vivo, Bromus secalinus; conditions: for Plant response rating, Cheatgrass: 0 to 10 scale
In short: as §1

[15] = test system: blackgrass; type: in vivo, Alopecurus myosuroides; conditions: for Plant response rating, Blackgrass: 0 to 10 scale
In short: as §1

[16] = test system: rape; type: in vivo, Brassica napus; conditions: for Plant response rating, Rape: 0 to 10 scale
In short: as §1

[17] = test system: bedstraw; type: in vivo, Galium aparine; conditions: for Plant response rating, Bedstraw: 0 to 10 scale
In short: as §1

[18] = test system: morningglory; type: in vivo, Ipomoea hederacea; conditions: for Plant response rating, Morningglory: 0 to 10 scale
In short: as §1

[19] = test system: rice; type: in vivo, Oryza sativa; conditions: for Plant response rating, Rice: 0 to 10 scale
In short: as §1

[20] = test system: velvetleaf; type: in vivo, Abutilon theophrasti; conditions: for Plant response rating, Velvetleaf: 0 to 10 scale
In short: as §1

[21] = test system: sugar beet; type: in vivo, Beta vulgaris; conditions: for Plant response rating, Sugar beet: 0 to 10 scale
In short: as §1

[22] = test system: cotton; type: in vivo, Gossypium hirsutum; conditions: for Plant response rating, Cotton: 0 to 10 scale
In short: as §1

[23] = test system: wild buckwheat; type: in vivo, Polygonum convolvulus; conditions: for Plant response rating, Wild buckwheat: 0 to 10 scale
In short: as §1

With `CC(C)OC(=O)COc1cc(-c2nn3c(c2Br)CCCC3)c(F)cc1Cl` [Compound 64] the “Plant response rating, Corn” value ([1]; POSTEMERGENCE, Rate 50 g/ha) was 5, the “Plant response rating, Corn” value ([1]; PREEMERGENCE, Rate 50 g/ha) was 0 and the “Plant response rating (0 to 10 scale), Corn” value ([1]; PREEMERGENCE, Rate 200 g/ha) was 0. The “Plant response rating, Corn” value ([1]; Rate 200 g/ha, POSTEMERGENCE) was 3, the “Plant response rating, Chickweed” value ([2]; POSTEMERGENCE, Rate 50 g/ha) was 2 and the “Plant response rating, Chickweed” value ([2]; PREEMERGENCE, Rate 50 g/ha) was 0. For the same molecule, the “Plant response rating (0 to 10 scale), Chickweed” value ([2]; PREEMERGENCE, Rate 200 g/ha) was 0, the “Plant response rating, Chickweed” value ([2]; Rate 200 g/ha, POSTEMERGENCE) was 5 and the “Plant response rating, Giant foxtail” value ([3]; POSTEMERGENCE, Rate 50 g/ha) was 3. For the same molecule, the “Plant response rating, Giant foxtail” value ([3]; PREEMERGENCE, Rate 50 g/ha) was 0, the “Plant response rating (0 to 10 scale), Giant foxtail” value ([3]; PREEMERGENCE, Rate 200 g/ha) was 0 and the “Plant response rating, Giant foxtail” value ([3]; Rate 200 g/ha, POSTEMERGENCE) was 3. For the same molecule, the “Plant response rating, Lambsquarter” value ([4]; POSTEMERGENCE, Rate 50 g/ha) was 9, the “Plant response rating, Lambsquarter” value ([4]; PREEMERGENCE, Rate 50 g/ha) was 10 and the “Plant response rating (0 to 10 scale), Lambsquarter” value ([4]; PREEMERGENCE, Rate 200 g/ha) was 10. The “Plant response rating, Lambsquarter” value ([4]; Rate 200 g/ha, POSTEMERGENCE) was 10, the “Plant response rating, Wild oat” value ([5]; POSTEMERGENCE, Rate 50 g/ha) was 3 and the “Plant response rating, Wild oat” value ([5]; PREEMERGENCE, Rate 50 g/ha) was 0. For the same molecule, the “Plant response rating (0 to 10 scale), Wild oat” value ([5]; PREEMERGENCE, Rate 200 g/ha) was 0, the “Plant response rating, Wild oat” value ([5]; Rate 200 g/ha, POSTEMERGENCE) was 3 and the “Plant response rating, Sorghum” value ([6]; POSTEMERGENCE, Rate 50 g/ha) was 4. The “Plant response rating, Sorghum” value ([6]; PREEMERGENCE, Rate 50 g/ha) was 0, the “Plant response rating (0 to 10 scale), Sorghum” value ([6]; PREEMERGENCE, Rate 200 g/ha) was 0 and the “Plant response rating, Sorghum” value ([6]; Rate 200 g/ha, POSTEMERGENCE) was 4. The “Plant response rating, Barnyardgrass” value ([7]; POSTEMERGENCE, Rate 50 g/ha) was 5, the “Plant response rating, Barnyardgrass” value ([7]; PREEMERGENCE, Rate 50 g/ha) was 0 and the “Plant response rating (0 to 10 scale), Barnyardgrass” value ([7]; PREEMERGENCE, Rate 200 g/ha) was 1. The “Plant response rating, Barnyardgrass” value ([7]; Rate 200 g/ha, POSTEMERGENCE) was 7, the “Plant response rating, Barley” value ([8]; POSTEMERGENCE, Rate 50 g/ha) was 2 and the “Plant response rating, Barley” value ([8]; PREEMERGENCE, Rate 50 g/ha) was 0. The “Plant response rating (0 to 10 scale), Barley” value ([8]; PREEMERGENCE, Rate 200 g/ha) was 0, the “Plant response rating, Barley” value ([8]; Rate 200 g/ha, POSTEMERGENCE) was 3 and the “Plant response rating, Cocklebur” value ([9]; POSTEMERGENCE, Rate 50 g/ha) was 10. For the same molecule, the “Plant response rating, Cocklebur” value ([9]; PREEMERGENCE, Rate 50 g/ha) was 0, the “Plant response rating (0 to 10 scale), Cocklebur” value ([9]; PREEMERGENCE, Rate 200 g/ha) was 2 and the “Plant response rating, Cocklebur” value ([9]; Rate 200 g/ha, POSTEMERGENCE) was 10. For the same molecule, the “Plant response rating, Nutsedge” value ([10]; POSTEMERGENCE, Rate 50 g/ha) was 2, the “Plant response rating, Nutsedge” value ([10]; PREEMERGENCE, Rate 50 g/ha) was 0 and the “Plant response rating (0 to 10 scale), Nutsedge” value ([10]; PREEMERGENCE, Rate 200 g/ha) was 0. For the same molecule, the “Plant response rating, Nutsedge” value ([10]; Rate 200 g/ha, POSTEMERGENCE) was 2, the “Plant response rating, Wheat” value ([11]; POSTEMERGENCE, Rate 50 g/ha) was 3 and the “Plant response rating, Wheat” value ([11]; PREEMERGENCE, Rate 50 g/ha) was 0. For the same molecule, the “Plant response rating (0 to 10 scale), Wheat” value ([11]; PREEMERGENCE, Rate 200 g/ha) was 0, the “Plant response rating, Wheat” value ([11]; Rate 200 g/ha, POSTEMERGENCE) was 2 and the “Plant response rating, Soybean” value ([12]; POSTEMERGENCE, Rate 50 g/ha) was 6. For the same molecule, the “Plant response rating, Soybean” value ([12]; PREEMERGENCE, Rate 50 g/ha) was 0, the “Plant response rating (0 to 10 scale), Soybean” value ([12]; PREEMERGENCE, Rate 200 g/ha) was 0 and the “Plant response rating, Soybean” value ([12]; Rate 200 g/ha, POSTEMERGENCE) was 5. For the same molecule, the “Plant response rating, Crabgrass” value ([13]; POSTEMERGENCE, Rate 50 g/ha) was 3, the “Plant response rating, Crabgrass” value ([13]; PREEMERGENCE, Rate 50 g/ha) was 0 and the “Plant response rating (0 to 10 scale), Crabgrass” value ([13]; PREEMERGENCE, Rate 200 g/ha) was 0. For the same molecule, the “Plant response rating, Crabgrass” value ([13]; Rate 200 g/ha, POSTEMERGENCE) was 5, the “Plant response rating, Cheatgrass” value ([14]; POSTEMERGENCE, Rate 50 g/ha) was 2 and the “Plant response rating, Cheatgrass” value ([14]; PREEMERGENCE, Rate 50 g/ha) was 2. The “Plant response rating (0 to 10 scale), Cheatgrass” value ([14]; PREEMERGENCE, Rate 200 g/ha) was 2, the “Plant response rating, Cheatgrass” value ([14]; Rate 200 g/ha, POSTEMERGENCE) was 3 and the “Plant response rating, Blackgrass” value ([15]; POSTEMERGENCE, Rate 50 g/ha) was 2. The “Plant response rating, Blackgrass” value ([15]; PREEMERGENCE, Rate 50 g/ha) was 1, the “Plant response rating (0 to 10 scale), Blackgrass” value ([15]; PREEMERGENCE, Rate 200 g/ha) was 2 and the “Plant response rating, Blackgrass” value ([15]; Rate 200 g/ha, POSTEMERGENCE) was 3. The “Plant response rating, Rape” value ([16]; POSTEMERGENCE, Rate 50 g/ha) was 7, the “Plant response rating, Rape” value ([16]; PREEMERGENCE, Rate 50 g/ha) was 0 and the “Plant response rating (0 to 10 scale), Rape” value ([16]; PREEMERGENCE, Rate 200 g/ha) was 0. The “Plant response rating, Rape” value ([16]; Rate 200 g/ha, POSTEMERGENCE) was 10, the “Plant response rating, Bedstraw” value ([17]; POSTEMERGENCE, Rate 50 g/ha) was 10 and the “Plant response rating, Bedstraw” value ([17]; PREEMERGENCE, Rate 50 g/ha) was 0. For the same molecule, the “Plant response rating (0 to 10 scale), Bedstraw” value ([17]; PREEMERGENCE, Rate 200 g/ha) was 1, the “Plant response rating, Bedstraw” value ([17]; Rate 200 g/ha, POSTEMERGENCE) was 10 and the “Plant response rating, Morningglory” value ([18]; POSTEMERGENCE, Rate 50 g/ha) was 9. The “Plant response rating, Morningglory” value ([18]; PREEMERGENCE, Rate 50 g/ha) was 0, the “Plant response rating (0 to 10 scale), Morningglory” value ([18]; PREEMERGENCE, Rate 200 g/ha) was 8 and the “Plant response rating, Morningglory” value ([18]; Rate 200 g/ha, POSTEMERGENCE) was 10. The “Plant response rating, Rice” value ([19]; POSTEMERGENCE, Rate 50 g/ha) was 4, the “Plant response rating, Rice” value ([19]; PREEMERGENCE, Rate 50 g/ha) was 0 and the “Plant response rating (0 to 10 scale), Rice” value ([19]; PREEMERGENCE, Rate 200 g/ha) was 2. For the same molecule, the “Plant response rating, Rice” value ([19]; Rate 200 g/ha, POSTEMERGENCE) was 5, the “Plant response rating, Velvetleaf” value ([20]; POSTEMERGENCE, Rate 50 g/ha) was 10 and the “Plant response rating, Velvetleaf” value ([20]; PREEMERGENCE, Rate 50 g/ha) was 3. The “Plant response rating (0 to 10 scale), Velvetleaf” value ([20]; PREEMERGENCE, Rate 200 g/ha) was 6, the “Plant response rating, Velvetleaf” value ([20]; Rate 200 g/ha, POSTEMERGENCE) was 10 and the “Plant response rating, Sugar beet” value ([21]; POSTEMERGENCE, Rate 50 g/ha) was 10. The “Plant response rating, Sugar beet” value ([21]; PREEMERGENCE, Rate 50 g/ha) was 9, the “Plant response rating (0 to 10 scale), Sugar beet” value ([21]; PREEMERGENCE, Rate 200 g/ha) was 10 and the “Plant response rating, Sugar beet” value ([21]; Rate 200 g/ha, POSTEMERGENCE) was 10. The “Plant response rating, Cotton” value ([22]; POSTEMERGENCE, Rate 50 g/ha) was 10, the “Plant response rating, Cotton” value ([22]; PREEMERGENCE, Rate 50 g/ha) was 0 and the “Plant response rating (0 to 10 scale), Cotton” value ([22]; PREEMERGENCE, Rate 200 g/ha) was 0. The “Plant response rating, Cotton” value ([22]; Rate 200 g/ha, POSTEMERGENCE) was 10, the “Plant response rating, Wild buckwheat” value ([23]; POSTEMERGENCE, Rate 50 g/ha) was 10 and the “Plant response rating, Wild buckwheat” value ([23]; PREEMERGENCE, Rate 50 g/ha) was 5. For the same molecule, the “Plant response rating (0 to 10 scale), Wild buckwheat” value ([23]; PREEMERGENCE, Rate 200 g/ha) was 10 and the “Plant response rating, Wild buckwheat” value ([23]; Rate 200 g/ha, POSTEMERGENCE) was 10.
